Consider one sequence from article PMC6317155, “Identification of Small Peptides that Inhibit NADPH Oxidase (Nox2) Activation” (Antioxidants, 2018).

Positions count from the first letter of the chain named.

For series [1], the target named is T1, lung aiPLA2 activity (Mus musculus, UniProt O08709).
T1 construct: from tissue; host or cells: mouse (C57Bl/6) lung homogenate
T1 sequence (O08709 1-224): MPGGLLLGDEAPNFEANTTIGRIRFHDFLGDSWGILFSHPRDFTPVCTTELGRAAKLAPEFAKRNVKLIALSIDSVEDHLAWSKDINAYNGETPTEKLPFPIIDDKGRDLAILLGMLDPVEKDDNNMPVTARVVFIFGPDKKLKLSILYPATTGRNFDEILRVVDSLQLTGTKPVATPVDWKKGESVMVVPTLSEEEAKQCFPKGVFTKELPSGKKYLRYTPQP
The series is described as follows: Lung aiPLA2 activity after a single IT or IV dose in mice in vivo. The following applies: single dose in liposomes, estimated. The protocol: For administration to mice, peptides were incorporated into liposomes that were prepared as previously described. Liposome composition was dipalmitoylphosphatidylcholine (DPPC): egg phosphatidylcholine: phosphatidylglycerol: cholesterol in the molar ratio 50:25:10:15. To measure the in vivo effect of the peptides, mice were injected with PIP-2 by either the intratracheal (IT) or the intravenous (IV) route and were sacrificed at intervals; lungs were removed from mice and homogenized for measurement of aiPLA2 activity.
(§1) The PLA2 activity of Prdx6 was measured as described previously. The substrate was dipalmitoylphosphatidylcholine (DPPC) with ^3H-9,10-palmitate in the sn-2 position of DPPC incorporated into lung surfactant-like liposomes as described above; substrate was incubated with enzyme for 60 min and activity was calculated from the liberation of ^3H-palmitate as measured by scintillation counting.
To determine the effect and duration of a single dose of PIP-2 on aiPLA2 activity of mouse lungs in vivo, mice were injected with PIP-2 in liposomes by either the intratracheal (IT) or the intravenous (IV) route; individual lungs were removed at intervals, homogenized, and assayed for aiPLA2 activity. […]
Figure 4 Persistence and stability of PIP-2 in vivo. […] Lungs were harvested at intervals between 4 and 72 h after the PIP-2 administration, homogenized, and analyzed for aiPLA2 activity. […]

The target of series [2] is T2, aiPLA2 activity of recombinant human Prdx6 (Homo sapiens, UniProt P30041).
T2 sequence (P30041 1-224): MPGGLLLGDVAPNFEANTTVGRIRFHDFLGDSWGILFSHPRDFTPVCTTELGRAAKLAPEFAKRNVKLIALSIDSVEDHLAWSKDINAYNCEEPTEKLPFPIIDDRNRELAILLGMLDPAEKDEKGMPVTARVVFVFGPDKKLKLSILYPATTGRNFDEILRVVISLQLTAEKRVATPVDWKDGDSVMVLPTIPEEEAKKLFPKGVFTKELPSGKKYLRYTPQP
As to the kind of experiment: Chemical stability of dry powder on laboratory shelf, read out as inhibition of aiPLA2 activity. It is filed as physicochemical. As to conditions: room temperature, nine months, data not shown. The text has this: These peptides have a molecular mass of 1156–1178 with a predicted isoelectric point in the slightly basic range. Each of the three peptides contains four hydrophobic amino acid residues, with two of those on the same surface, and one negatively charged hydrophilic aa. The PIP-2 sequence has three while PIPs-1 and -3 have only two positively charged aa. PIP-1 is slightly more hydrophobic than the other two peptides but, in our experience, all three peptides readily dissolve in aqueous solution. […] No antigenic determinants were identified in these peptides as determined by the free on-line program provided by the Immunomedicine Group of the Universidad Complutense (Madrid, Spain). The chemical stability of PIP-2 was tested by placing the dry powder on the laboratory shelf at room temperature; its inhibition of the aiPLA2 activity of recombinant human Prdx6 was unchanged when measured after nine months of shelf storage indicating good stability of the peptide as a dry powder (data not shown); stability of the other peptides was not tested.

In series [3] the target is T3, aiPLA2 activity of lung homogenate (Mus musculus, UniProt O08709).
T3 construct: from tissue; host or cells: mouse (C57Bl/6) lung homogenate
T3 sequence (O08709 1-224): T1 sequence (O08709 1-224)
The series is described as follows: aiPLA2 activity of homogenate of isolated mouse lungs perfused with PIP-2. As to conditions: inferred from lack of effect without liposomal carrier in lungs. The protocol:
as §1
To confirm the requirement for liposomes as a delivery vehicle, lungs were perfused for 15 min with PIP-2 incorporated or not into liposomes, then perfused with fresh medium to clear extracellular PIP-2, and then homogenized and assayed for aiPLA2 activity. PIP-2 administered without liposomes had no effect on aiPLA2 activity of the lung homogenate while PIP-2 in liposomes inhibited activity by ~80% (Table 5).

For series [4], the system named is lung PLA2 enzymes that are active at pH 7. The series is described as follows: PLA2 activity of lung homogenate at pH 7 with Ca2+ (other lung PLA2 enzymes), PIP-2 added to the assay. It is filed as biochemical, mouse. The protocol: as §1
(§2) Lung cells, like those of other organs, have multiple PLA2 enzymes. We evaluated the specificity of PIP-2 for inhibition of Prdx6 by measuring aiPLA2 activity in the lung homogenate of wild type and D140A-Prdx6 mutant mice. […] Measurement of PLA2 activity at pH 4 in the absence of Ca^2+ is relatively specific for the PLA2 activity of Prdx6 (aiPLA2). This activity was inhibited by 91% following addition of PIP-2 to the assay of the lung homogenate (Table 6). Although Prdx6 has relatively little PLA2 activity when measured at pH 7, other lung PLA2 enzymes, some of which are Ca^2+-dependent for activity, show activity at neutral pH; this activity was not affected by mutation of D140 in Prdx6 (Table 6). Unlike the effect of PIP-2 on aiPLA2 activity at pH 4, the addition of PIP-2 had no effect on activity of the lung PLA2 enzymes that are active at pH 7. Thus, aiPLA2 appears to be the only PLA2 enzyme, at least in the lung, that is inhibited by PIP-2.

The target in series [5] is T4, PLA2 activity of Prdx6 (aiPLA2) (Mus musculus, UniProt O08709, D140A).
T4 construct: from tissue; host or cells: mouse (C57Bl/6) lung homogenate
T4 sequence (O08709 2-224 D140A): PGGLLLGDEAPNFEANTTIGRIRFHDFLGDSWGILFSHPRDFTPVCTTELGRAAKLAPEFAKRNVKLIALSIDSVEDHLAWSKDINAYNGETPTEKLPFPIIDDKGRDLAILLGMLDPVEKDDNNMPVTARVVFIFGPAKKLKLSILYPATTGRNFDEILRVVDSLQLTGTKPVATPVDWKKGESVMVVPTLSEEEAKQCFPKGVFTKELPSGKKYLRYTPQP
The series is described as follows: PLA2 activity of lung homogenate at pH 4 without Ca2+ (aiPLA2), PIP-2 added to the assay. As to conditions: D140A-Prdx6 knock-in mouse lung homogenate, no Ca2+; no inhibitor 0.2 ± 0.03; mean ± range, n = 2. It is filed as biochemical. The protocol: as §1, §2

In series [6] the target is T5, PLA2 activity of Prdx6 (aiPLA2) (Mus musculus, UniProt O08709).
T5 construct: from tissue; host or cells: mouse (C57Bl/6) lung homogenate
T5 sequence (O08709 2-224): T4 sequence (O08709 2-224 D140A) with A139D
The series is described as above. It is filed as biochemical. As to conditions: wild type mouse lung homogenate, no Ca2+; no inhibitor 8.7 ± 0.16; mean ± range, n = 2. The protocol:
as §1, §2

Series [7] has as its target T2, aiPLA2 activity of recombinant human Prdx6. The series is described as follows: aiPLA2 (PLA2) activity of recombinant human Prdx6 in vitro, 3H-DPPC liposome substrate. It is filed as biochemical. The protocol:
as §1
The effect of the PIP peptides on the aiPLA2 activity of human recombinant Prdx6 was determined by in vitro assay; the effective concentration of inhibitor was corrected for purity of the PIP preparation. Saturating concentrations of all three peptides (PIP-1, PIP-2, PIP-3) inhibited aiPLA2 activity by ~70% (Figure 2). The basis for the remaining 30% of activity that was not inhibited is unclear.

Consider LHDFRHQIL [PIP-2], for which the “Half-time for recovery of lung aiPLA2 activity (decrease of in vivo inhibition)” value in series [1] is ~ 50 h. The “Chemical stability: inhibition of aiPLA2 activity after shelf storage” value in series [2] is recorded as “unchanged”. Moreover, in series [3], the “Ability to cross the cell membrane” value is recorded as “not able to cross the cell membrane”. Besides, the “PLA2 activity, pH 7 + Ca2+, D140A-Prdx6” value in series [4] (D140A-Prdx6 knock-in mouse lung homogenate, no inhibitor 8.3 ± 0.26, mean ± range, n = 2) was 8.5 ± 0.10 nmol/min/mg Prot. For the same sequence, the “Effect on activity of lung PLA2 enzymes active at pH 7” value in series [4] (PIP-2 added to assay of lung homogenate) was “no effect”. Also, the “PLA2 activity, pH 4, D140A-Prdx6” value in series [5] is given as 0.2 ± 0.06 nmol/min/mg Prot. The “PLA2 activity, pH 4, WT” value in series [6] amounted to 1.6 ± 0.10 nmol/min/mg Prot. The “Activity (aiPLA2 of recombinant hPrdx6), human-derived peptides” value in series [7] (deletions from 16-aa human-derived SP-A peptide, no-peptide control 92.0, one assay done in duplicate) was found to be 29.9 nmol/min/mg Prot. For the same sequence, the “Inhibition of aiPLA2 activity at saturating concentrations of peptide” value in series [7] (recombinant human Prdx6, Figure 2, mean + SEM, n = 3) is ~ 70%. For the same sequence, the “Concentration of peptide for inhibition of aiPLA2 activity by 50%” value in series [7] (recombinant human Prdx6, concentration corrected for purity of the PIP preparation, Figure 2, n = 3) is recorded as ~ 6.6 µg/mg Prdx6.
